Source: US11911346B2, “Orally administrated therapeutic for treating mild cognitive impairment (MCI) and improving human cognitive function” (BrainCare LLC, priority 2021, dated 2024)
Several values for one entry are separate records, joined by “and”; a condition that tells them apart may be missing. Identical values can stand only once.

Tests used:
[1] = system: concentration and attention of participants with Subjective Cognitive Decline; assay: Cambridge Brain Sciences (CBS) Feature Match test; assay type: in vivo, human; conditions: for Feature Match actual score: Week 4, normal 87-113; for Feature Match percentage change: Week 8, over 8 weeks
Source text: (§1) The Cambridge Brain Sciences (CBS) included a battery of four tests to measure various aspects of cognition and that affected different regions of the brain. Normal scores for each test ranged from 87 to 113.
The fourth test is the Feature Match (aka Feature Selection), which addresses concentration and attention, and correlates well with aging. It can detect early Alzheimer's disease, and non-Alzheimer's dementia.
(§2) The data are presented as mean±standard deviation (S.D.) at baseline, week 4, and week 8. Results from the Cognitive Failures Questionnaire and Cambridge Brain Sciences are compared using the Student's t-test in each intervention group between baseline and week 4 and between baseline and week 8. Significance was defined as p≤0.05. At each time point, the percentage change was compared with the values at baseline. This calculation was only obtained from the means between each time point, and the statistical analysis was not made on these percentage changes.
(§3) For Cambridge Brain Sciences tests, some responses were flagged as being a highly unusual response (found in less than 1% of Cambridge Brain Sciences normative database). […] These scores were considered to be invalid and excluded from the final analysis. For each participant, the combined mean scores of all four CBS tests were summed for at baseline and at week 8. The participants were then grouped according to these mean baseline score of all four tests as: below average (less than or equal to 100) and average and above (greater than 100).

[2] = system: cognitive function of participants with Subjective Cognitive Decline; assay: Cambridge Brain Sciences (CBS) battery, combined means of all four tests; assay type: in vivo, human
Source text: as §1, §3

[3] = system: salivary testosterone; conditions: olfactory exposure to 3% BCP over 20 minutes, women with low libido; cited from earlier work
[4] = system: reasoning and planning of participants with Subjective Cognitive Decline; assay: Cambridge Brain Sciences (CBS) Spatial Planning test; assay type: in vivo, human
Source text: as §1
The first test is the Spatial Planning test, which addresses reasoning and planning. It tests for non-Alzheimer's dementia but has a high correlation with aging. It has a high reproducibility and is useful to distinguish impaired and unimpaired populations. The parts of the brain implicated include: frontal lobe, mid-dorsolateral frontal cortex, caudate nucleus, thalamus, lateral premotor, and anterior cingulate.
as §2, §3

[5] = system: acute or chronic pain; conditions: 60 mg of BCP daily, by day 4; 31 participants; cited from earlier work
[6] = system: visuospatial and working memory of participants with Subjective Cognitive Decline; assay: Cambridge Brain Sciences (CBS) Monkey Ladder test; assay type: in vivo, human; conditions: for Monkey Ladder actual score: Week 4, normal 87-113
Source text: as §1
The third test is the Monkey Ladder, which relates visuospatial and working memory. The test can detect early Alzheimer's disease, non-Alzheimer's dementia, and age-related cognitive decline. The parts of the brain involved included: the mid-dorsolateral prefrontal cortex, premotor cortex, and posterior parietal cortex.
as §2, §3

[7] = system: concentration and response inhibition of participants with Subjective Cognitive Decline; assay: Cambridge Brain Sciences (CBS) Double Trouble test; assay type: in vivo, human; conditions: for Double Trouble actual score: Week 4, normal 87-113
Source text: as §1
The second test is Double Trouble and addresses concentration and response inhibition. It can detect early Alzheimer's disease and age-related cognitive decline. It has a high reproducibility and is useful in distinguishing impaired and unimpaired aging. The parts of the brain involved include the right prefrontal cortex and dorsolateral region.
as §2, §3

[8] = one capsule daily (90 mg BCP), N=24
[9] = two capsules daily (180 mg BCP), N=25
[10] = two capsules daily (180 mg BCP)
[11] = one capsule daily (90 mg BCP), all participants
[12] = one capsule daily (90 mg BCP), baseline mean greater than 100
[13] = one capsule daily (90 mg BCP), baseline mean less than or equal to 100
[14] = two capsules daily (180 mg BCP), all participants
[15] = two capsules daily (180 mg BCP), baseline mean greater than 100
[16] = two capsules daily (180 mg BCP), baseline mean less than or equal to 100
[17] = one capsule daily (90 mg BCP), N=26
[18] = one capsule daily (90 mg BCP), Week 8, over 8 weeks
[19] = one capsule daily (90 mg BCP), N=23
[20] = one capsule daily (90 mg BCP), N=25
[21] = two capsules daily (180 mg BCP), N=22

C=C1CC/C=C(\C)CC[C@@H]2[C@@H]1CC2(C)C [BCP, beta-caryophyllene]
Feature Match: % of participants with no change between baseline and week 8 [1, 8]: (13%)
Feature Match: number of participants improved between baseline and week 8 [1, 8]: 13
Feature Match: number of participants with no change between baseline and week 8 [1, 8]: 3
Feature Match: number of participants worsened between baseline and week 8 [1, 8]: 8
Feature Match actual score ([1]; one capsule daily (90 mg BCP)): 98.3 ± 6.9
Feature Match percentage change ([1]; one capsule daily (90 mg BCP)): +2.0%
Feature Match: % of participants with no change between baseline and week 8 [1, 9]: (16%)
Feature Match: number of participants improved between baseline and week 8 [1, 9]: 10
Feature Match: number of participants with no change between baseline and week 8 [1, 9]: 4
Feature Match: number of participants worsened between baseline and week 8 [1, 9]: 11
Feature Match actual score [1, 10]: 98.4 ± 7.6
Feature Match percentage change [1, 10]: No change
% of subjects with sub-optimal baseline score (less than 87) who improved to a normal score on any test ([2]; one capsule daily (90 mg BCP), during the 8-week study): 31%
Mean of four tests scores at week 8 [2, 11]: 99.8
Percentage change (mean ± S.D.) of mean of four tests scores, baseline to week 8 [2, 11]: 3.6±10.0%
Mean of four tests scores at week 8 [2, 12]: 108.7
Percentage change (mean ± S.D.) of mean of four tests scores, baseline to week 8 [2, 12]: −0.7±9.4%
Mean of four tests scores at week 8 [2, 13]: 96.8
Percentage change (mean ± S.D.) of mean of four tests scores, baseline to week 8 [2, 13]: 5.0±9.8% and 5%
Mean of four tests scores at week 8 [2, 14]: 101.0
Percentage change (mean ± S.D.) of mean of four tests scores, baseline to week 8 [2, 14]: 4.6±12.1%
Mean of four tests scores at week 8 [2, 15]: 104.2
Percentage change (mean ± S.D.) of mean of four tests scores, baseline to week 8 [2, 15]: −1.5% and −1.5 ± 7.5%
Mean of four tests scores at week 8 [2, 16]: 98.8
Percentage change (mean ± S.D.) of mean of four tests scores, baseline to week 8 [2, 16]: 9.0±12.9% and 9%
Salivary testosterone vs. control period [3]: increased
Spatial Planning: % of participants with no change between baseline and week 8 [4, 17]: (8%)
Spatial Planning: number of participants improved between baseline and week 8 [4, 17]: 19
Spatial Planning: number of participants with no change between baseline and week 8 [4, 17]: 2
Spatial Planning: number of participants worsened between baseline and week 8 [4, 17]: 5
Spatial Planning actual score ([4]; one capsule daily (90 mg BCP), Week 4, normal 87-113): 104 ± 9
Spatial Planning percentage change [4, 18]: +2.3%
Spatial Planning: % of participants with no change between baseline and week 8 [4, 9]: (8%)
Spatial Planning: number of participants improved between baseline and week 8 [4, 9]: 18
Spatial Planning: number of participants with no change between baseline and week 8 [4, 9]: 2
Spatial Planning: number of participants worsened between baseline and week 8 [4, 9]: 5
% of participants reporting mitigation of pain [5]: 60%
Monkey Ladder: % of participants with no change between baseline and week 8 [6, 19]: (4%)
Monkey Ladder: number of participants improved between baseline and week 8 [6, 19]: 16
Monkey Ladder: number of participants with no change between baseline and week 8 [6, 19]: 1
Monkey Ladder: number of participants worsened between baseline and week 8 [6, 19]: 6
Monkey Ladder actual score ([6]; one capsule daily (90 mg BCP)): 103.8 ± 6.7
Monkey Ladder percentage change [6, 18]: +2.5%
Monkey Ladder: % of participants with no change between baseline and week 8 [6, 9]: (28%)
Monkey Ladder: number of participants improved between baseline and week 8 [6, 9]: 17
Monkey Ladder: number of participants with no change between baseline and week 8 [6, 9]: 7
Monkey Ladder: number of participants worsened between baseline and week 8 [6, 9]: 1
Monkey Ladder actual score [6, 10]: 103.7 ± 8.1
Double Trouble: number of participants improved between baseline and week 8 [7, 20]: 15
Double Trouble: number of participants with no change between baseline and week 8 [7, 20]: 0
Double Trouble: number of participants worsened between baseline and week 8 [7, 20]: 9
Double Trouble: % of participants with sub-optimal score ([7]; one capsule daily (90 mg BCP), week 8 (56% at baseline)): 44%
Double Trouble actual score ([7]; one capsule daily (90 mg BCP)): 93 ± 15
Double Trouble percentage change [7, 18]: +5.3%
Double Trouble: % of participants with no change between baseline and week 8 [7, 21]: (14%)
Double Trouble: number of participants improved between baseline and week 8 [7, 21]: 14
Double Trouble: number of participants with no change between baseline and week 8 [7, 21]: 3
Double Trouble: number of participants worsened between baseline and week 8 [7, 21]: 5
Double Trouble actual score [7, 10]: 97.3 ± 15.2
